In PubChem BioAssay (NCI):
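In this assay, cells in 96-well plates receive the compound at five concentrations for 48 hours. Endpoints are linearly interpolated between the surrounding concentrations. GI50 marks 50% less growth. TGI: concentration producing complete growth inhibition.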

Legend:
Experiment in all cases: growth of human tumour cells (NCI), 48 h
786-0 renal = tested on: 786-0 renal
A498 renal = tested on: A498 renal
A549 NSCLC = tested on: A549 NSCLC
ACHN renal = tested on: ACHN renal
BT-549 breast = tested on: BT-549 breast
CAKI-1 renal = tested on: CAKI-1 renal
CCRF-CEM leukemia = tested on: CCRF-CEM leukemia
COLO 205 colon = tested on: COLO 205 colon
DU-145 prostate = tested on: DU-145 prostate
EKVX NSCLC = tested on: EKVX NSCLC
HCC-2998 colon = tested on: HCC-2998 colon
HCT-116 colon = tested on: HCT-116 colon
HCT-15 colon = tested on: HCT-15 colon
HL-60(TB) leukemia = tested on: HL-60(TB) leukemia
HOP-62 NSCLC = tested on: HOP-62 NSCLC
HOP-92 NSCLC = tested on: HOP-92 NSCLC
HS 578T breast = tested on: HS 578T breast
HT29 colon = tested on: HT29 colon
IGROV1 ovarian = tested on: IGROV1 ovarian
K-562 leukemia = tested on: K-562 leukemia
KM12 colon = tested on: KM12 colon
LOX IMVI melanoma = tested on: LOX IMVI melanoma
M14 melanoma = tested on: M14 melanoma
MALME-3M melanoma = tested on: MALME-3M melanoma
MCF7 breast = tested on: MCF7 breast
MDA-MB-231 breast = tested on: MDA-MB-231 breast
MDA-MB-435 = tested on: MDA-MB-435
MOLT-4 leukemia = tested on: MOLT-4 leukemia
NCI-H226 lung = tested on: NCI-H226 lung
NCI-H23 lung = tested on: NCI-H23 lung
NCI-H460 lung = tested on: NCI-H460 lung
NCI-H522 lung = tested on: NCI-H522 lung
NCI/ADR-RES ovarian = tested on: NCI/ADR-RES ovarian
OVCAR-4 ovarian = tested on: OVCAR-4 ovarian
OVCAR-5 ovarian = tested on: OVCAR-5 ovarian
OVCAR-8 ovarian = tested on: OVCAR-8 ovarian
PC-3 prostate = tested on: PC-3 prostate
RPMI-8226 leukemia = tested on: RPMI-8226 leukemia
RXF 393 renal = tested on: RXF 393 renal
SF-268 CNS = tested on: SF-268 CNS
SF-295 CNS = tested on: SF-295 CNS
SF-539 CNS = tested on: SF-539 CNS
SK-MEL-2 melanoma = tested on: SK-MEL-2 melanoma
SK-MEL-28 melanoma = tested on: SK-MEL-28 melanoma
SK-MEL-5 melanoma = tested on: SK-MEL-5 melanoma
SK-OV-3 ovarian = tested on: SK-OV-3 ovarian
SN12C renal = tested on: SN12C renal
SNB-19 CNS = tested on: SNB-19 CNS
SNB-75 CNS = tested on: SNB-75 CNS
SR leukemia = tested on: SR leukemia
SW-620 colon = tested on: SW-620 colon
T-47D breast = tested on: T-47D breast
TK-10 renal = tested on: TK-10 renal
U251 CNS = tested on: U251 CNS
UACC-257 melanoma = tested on: UACC-257 melanoma
UACC-62 melanoma = tested on: UACC-62 melanoma
UO-31 renal = tested on: UO-31 renal

Structure (SMILES): CC[C@]12C=CCN3CC[C@]4(C(=C(C(=O)OC)C1)Nc1cc5c(cc14)[C@@H]1[C@H](O5)[C@@H](O)[C@@]4(CC)CC(C(=O)OC)=C5Nc6cc(O)ccc6[C@@]56CCN1C46)C32 (stereo partly specified)
- GI50 (786-0 renal): 68.5 nM
- TGI (786-0 renal): 4040 nM
- GI50 (A498 renal): 81.8 nM
- TGI (A498 renal): 407 nM
- GI50 (A549 NSCLC): 259 nM
- TGI (A549 NSCLC): 9990 nM
- GI50 (ACHN renal): 153 nM
- TGI (ACHN renal): 1100 nM
- GI50 (BT-549 breast): 168 nM
- TGI (BT-549 breast): 1300 nM
- GI50 (CAKI-1 renal): 39.8 nM
- TGI (CAKI-1 renal): 1590 nM
- GI50 (CCRF-CEM leukemia): 94 nM
- TGI (CCRF-CEM leukemia): > 50000 nM
- GI50 (COLO 205 colon): 119 nM
- TGI (COLO 205 colon): 619 nM
- GI50 (DU-145 prostate): 707 nM
- TGI (DU-145 prostate): > 26400 nM
- GI50 (EKVX NSCLC): 239 nM
- TGI (EKVX NSCLC): > 24500 nM
- GI50 (HCC-2998 colon): 75.2 nM
- TGI (HCC-2998 colon): 335 nM
- GI50 (HCT-116 colon): 72.7 nM
- TGI (HCT-116 colon): 597 nM
- GI50 (HCT-15 colon): 92.7 nM
- TGI (HCT-15 colon): 358 nM
- GI50 (HL-60(TB) leukemia): 19.8 nM
- TGI (HL-60(TB) leukemia): 2110 nM
- GI50 (HOP-62 NSCLC): 136 nM
- TGI (HOP-62 NSCLC): > 15300 nM
- GI50 (HOP-92 NSCLC): 15.7 nM
- TGI (HOP-92 NSCLC): 1050 nM
- GI50 (HS 578T breast): 172 nM
- TGI (HS 578T breast): > 50000 nM
- GI50 (HT29 colon): 153 nM
- TGI (HT29 colon): 1830 nM
- GI50 (IGROV1 ovarian): 112 nM
- GI50 (K-562 leukemia): 47.5 nM
- TGI (K-562 leukemia): > 50000 nM
- GI50 (KM12 colon): 256 nM
- TGI (KM12 colon): 6990 nM
- GI50 (LOX IMVI melanoma): 59.7 nM
- TGI (LOX IMVI melanoma): 135 nM
- GI50 (M14 melanoma): 109 nM
- TGI (M14 melanoma): 9550 nM
- GI50 (MALME-3M melanoma): 128 nM
- TGI (MALME-3M melanoma): 9230 nM
- GI50 (MCF7 breast): 27 nM
- TGI (MCF7 breast): > 50000 nM
- GI50 (MDA-MB-231 breast): 94.3 nM
- TGI (MDA-MB-231 breast): 40200 nM
- GI50 (MDA-MB-435): 106 nM
- TGI (MDA-MB-435): 1520 nM
- GI50 (MOLT-4 leukemia): 134 nM
- TGI (MOLT-4 leukemia): > 50000 nM
- GI50 (NCI-H226 lung): 179 nM
- GI50 (NCI-H23 lung): 165 nM
- TGI (NCI-H23 lung): 1650 nM
- GI50 (NCI-H460 lung): 332 nM
- TGI (NCI-H460 lung): 8080 nM
- GI50 (NCI-H522 lung): 61.4 nM
- TGI (NCI-H522 lung): 324 nM
- GI50 (NCI/ADR-RES ovarian): 293 nM
- TGI (NCI/ADR-RES ovarian): > 50000 nM
- GI50 (OVCAR-4 ovarian): 213 nM
- TGI (OVCAR-4 ovarian): > 50000 nM
- GI50 (OVCAR-5 ovarian): 262 nM
- TGI (OVCAR-5 ovarian): > 22400 nM
- GI50 (OVCAR-8 ovarian): 166 nM
- TGI (OVCAR-8 ovarian): > 16000 nM
- GI50 (PC-3 prostate): 128 nM
- TGI (PC-3 prostate): 8000 nM
- GI50 (RPMI-8226 leukemia): 79.8 nM
- TGI (RPMI-8226 leukemia): 990 nM
- GI50 (RXF 393 renal): 162 nM
- TGI (RXF 393 renal): 977 nM
- GI50 (SF-268 CNS): 352 nM
- TGI (SF-268 CNS): > 20700 nM
- GI50 (SF-295 CNS): 187 nM
- TGI (SF-295 CNS): 9340 nM
- GI50 (SF-539 CNS): 181 nM
- TGI (SF-539 CNS): 8140 nM
- GI50 (SK-MEL-2 melanoma): 164 nM
- TGI (SK-MEL-2 melanoma): 1580 nM
- GI50 (SK-MEL-28 melanoma): 410 nM
- TGI (SK-MEL-28 melanoma): 18400 nM
- GI50 (SK-MEL-5 melanoma): 217 nM
- TGI (SK-MEL-5 melanoma): > 15300 nM
- GI50 (SK-OV-3 ovarian): 172 nM
- TGI (SK-OV-3 ovarian): 1060 nM
- GI50 (SN12C renal): 185 nM
- TGI (SN12C renal): > 9990 nM
- GI50 (SNB-19 CNS): 210 nM
- TGI (SNB-19 CNS): > 25600 nM
- GI50 (SNB-75 CNS): 369 nM
- TGI (SNB-75 CNS): > 50000 nM
- GI50 (SR leukemia): 40.1 nM
- TGI (SR leukemia): 4280 nM
- GI50 (SW-620 colon): 167 nM
- TGI (SW-620 colon): 2270 nM
- GI50 (T-47D breast): 103 nM
- GI50 (TK-10 renal): 64.2 nM
- TGI (TK-10 renal): 645 nM
- GI50 (U251 CNS): 195 nM
- TGI (U251 CNS): 2580 nM
- GI50 (UACC-257 melanoma): 122 nM
- TGI (UACC-257 melanoma): > 21500 nM
- GI50 (UACC-62 melanoma): 85.9 nM
- TGI (UACC-62 melanoma): 40300 nM
- GI50 (UO-31 renal): 93.3 nM
- TGI (UO-31 renal): 3070 nM
